Source: the SangsterLogP compilation

Assay: not given
Details: not given

Structure (SMILES) | logP
Clc1ccccc1 | 2.73
O=[N+]([O-])c1cccc(O)c1 | 1.88
N#Cc1ccc([N+](=O)[O-])cc1 | 1.25
N#Cc1ccccc1[N+](=O)[O-] | 1.16

Assay: not given
Details: not given
Remark: another data set of the same source

Structure (SMILES) | logP
CCS(=O)(=O)CCn1c([N+](=O)[O-])cnc1C | -0.38
O=[N+]([O-])c1ccc(/C=N\O)o1 | 0.3
NC(=S)N/N=C/c1ccc([N+](=O)[O-])o1 | 1.64
NC(=S)N/N=C\c1ccco1 | 1.64

Assay: not given
Details: not given
Remark: another data set of the same source

Structure (SMILES) | logP
COP(=S)(OC)Oc1nc(Cl)c(Cl)cc1Cl | 3.99
CCN(CC)c1nc(C)cc(OP(=S)(OC)OC)n1 | 3.8
CCOC(=O)CC(SP(=S)(OC)OC)C(=O)OCC (configuration not stated) | 2.18
CN(C)C(=O)Nc1ccccc1 | 1.18

Assay: not given
Details: not given
Remark: another data set of the same source

Structure (SMILES) | logP
COc1c(Br)cc(Br)cc1Br | 4.48
Clc1ccc2c(ccc3ccccc32)c1 | 5.16
CCNc1nc(Cl)nc(NC(C)C)n1 | 2.63
ClC(Cl)=C(Cl)c1c(Cl)c(Cl)c(Cl)c(Cl)c1Cl | 6.29

Assay: not given
Details: not given
Remark: another data set of the same source

Structure (SMILES) | logP
O=C(O)c1cc(Cl)nc(Cl)c1 | 2.6
CCOC(=O)c1cc(Cl)nc(Cl)c1 | 3.6
O=C(O)c1cc(Br)nc(Br)c1 | 2.8
O=C(O)c1nc(Cl)ccc1Cl | 1.06

Assay: not given
Details: not given
Remark: another data set of the same source

Structure (SMILES) | logP
OCc1ccccc1I | 2.43
Nc1c(F)cccc1F | 1.61
OCc1ccccc1Br | 2.08
Fc1cccc(F)c1 | 2.33

Assay: not given
Details: not given
Remark: another data set of the same source

Structure (SMILES) | logP
CCCCCCN1CC(C(=O)O)CC1=O (configuration not stated) | 1.6
CCCCCCN1CCCC1=O | 2.6
CN1CC(C(=O)O)CC1=O (configuration not stated) | -1.5
CCCCCCCCCCCCN1CC(C(=O)OC)CC1=O (configuration not stated) | 4

Assay: not given
Details: not given
Remark: another data set of the same source

Structure (SMILES) | logP
C[C@@H]1CCCC[C@H]1O | 1.82
CC1CCCC(C)C1O (configuration not stated) | 2.37
CCCCCCC(C)O (configuration not stated) | 2.9
CCCC(O)CC (configuration not stated) | 1.65

Assay: not given
Details: not given
Remark: another data set of the same source

Structure (SMILES) | logP
COc1cccc(Cl)c1 | 2.98
Cc1ccc(Cl)cc1O | 2.63
COc1ccc(OC)cc1 | 2.03
COc1ccc(N)c([N+](=O)[O-])c1 | 1.86

Assay: not given
Details: not given
Remark: another data set of the same source

Structure (SMILES) | logP
COc1ccc(C)cc1N | 1.74
Nc1ccc(Cl)cc1N | 1.28
Nc1cccc2cccnc12 | 1.79
Nc1ccc(Sc2ccccc2)cc1 | 2.18

Assay: method code SF-AS, from DOI: 10.1007/bf02922495
Details: not given

Structure (SMILES) | logP
N#CC(C#N)=Cc1ccc(Cl)o1 | 2.17
N#CC(C#N)=Cc1ccco1 | 1.5
COC(=O)/C(C#N)=C/c1ccco1 | 1.75
COC(=O)C(C#N)=Cc1ccc(Cl)o1 | 2.4

Assay: method code SF-RC, from DOI: 10.1002/ps.2780130506
Details: not given

Structure (SMILES) | logP
NC(=O)Nc1ccc(Oc2ccc(Br)cc2)cc1 | 3.7
CNC(=O)ON=C(C)C | -0.13
CNC(=O)ON=Cc1ccc(Cl)cc1 | 2.27
CNC(=O)O/N=C/c1ccccc1 | 1.49

Assay: method code SF, from DOI: 10.1016/j.jiec.2010.03.003
Details: not given

Structure (SMILES) | logP
CC(C)OC(C)C | 1.94
CCOC(C)(C)C | 1.71
CCC(C)(C)OC | 1.81
C=COCCC | 2

Assay: method code SF, from DOI: 10.1016/s0045-6535(97)00338-x
Details: not given

Structure (SMILES) | logP
Nc1ccc(F)c(F)c1F | 2.14
CC(=O)c1cc(F)c(Cl)cc1Cl | 3.4
CC(=O)c1ccc(F)cc1 | 1.74
Nc1ccc(F)cc1 | 1.18

Assay: method code SF-AS, from DOI: 10.1016/0378-5173(82)90004-7
Details: pH 3.0

Structure (SMILES) | logD
CCC1(C)C(=O)NC(=O)NC1=O | 0.08
CC1(c2ccccc2)C(=O)NC(=O)NC1=O | 0.91
C=CCC1(C)C(=O)NC(=O)NC1=O | 0.36
O=C1NC(=O)C(c2ccccc2)(c2ccccc2)C(=O)N1 | 1.96

Assay: method code SF, from DOI: 10.1021/js9700917, PMID: 9452977
Details: pH 5.5

Structure (SMILES) | logD
NC(=S)NS(=O)(=O)c1ccc(N)cc1 | 0.52
CC(=O)Nc1ccc(S(=O)(=O)Nc2nc(C)c(C)o2)cc1 | 0.46
NS(=O)(=O)c1ccncn1 | -0.2
CC(=O)Nc1ccc(S(=O)(=O)Nc2cc(C)nc(C)n2)cc1 | -0.14

Assay: method code SF-HPLC, from DOI: 10.1016/0378-5173(82)90005-9
Details: pH 3.0

Structure (SMILES) | logD
O=C1NC(=O)C2(CCCCCCCCCC2)C(=O)N1 | 3.15
O=C1NC(=O)C2(CC2)C(=O)N1 | -0.53
O=C1NC(=O)C2(CCCC2)C(=O)N1 | 0.24
O=C1NC(=O)C2(CCCCC2)C(=O)N1 | 0.91

Assay: method code SF-GLC, from DOI: 10.1016/s0021-9673(01)83612-8
Details: pH 13.0

Structure (SMILES) | logD
CCCCCC(C)N (configuration not stated) | 2.4
CC(N)CC1CCCCC1 (configuration not stated) | 2.96
CNC1CCc2ccccc2C1 (configuration not stated) | 2.38
CC1Cc2ccccc2CN1 (configuration not stated) | 1.93

Assay: method code SF, from DOI: 10.1021/jm00378a018, PMID: 6389865
Details: pH 7.0

Structure (SMILES) | logD
O=[N+]([O-])c1cnc(NC(CO)C(O)CO)cn1 (configuration not stated) | -0.89
Nc1nc(NCCO)c(Cl)nc1[N+](=O)[O-] | 0.12
COC(=O)c1nc(NCC(O)CO)cnc1[N+](=O)[O-] (configuration not stated) | -0.1
O=[N+]([O-])c1nccnc1NCC(O)CO (configuration not stated) | -0.49

Assay: method code SF-CR+AS, from DOI: 10.1016/s0003-2670(00)84151-3
Details: not given

Structure (SMILES) | logP
Cc1ccc(C(N)=S)cc1 | 2.01
COc1ccc(C(N)=S)cc1 | 1.63
NC(=S)c1ccc([N+](=O)[O-])cc1 | 1.75
NC(=S)c1ccc(Cl)cc1 | 2.4

Assay: method code SF, from DOI: 10.1038/bjc.1982.190, PMID: 7150475
Details: pH 7.4

Structure (SMILES) | logD
Cn1cnc([N+](=O)[O-])c1S(=O)(=O)Oc1ccccc1 | 1.08
O=[N+]([O-])c1nccn1CC(O)CCN1CCOCC1 (configuration not stated) | -0.53
NC(=O)c1cc(N2CC2)c([N+](=O)[O-])cc1[N+](=O)[O-] | 0.2
O=C1CN(/N=C/c2ccc([N+](=O)[O-])o2)C(=O)N1 | -0.19

Assay: method code SF, from DOI: 10.1002/em.2850190108, PMID: 1732104
Details: not given

Structure (SMILES) | logP
O=[N+]([O-])c1cc([N+](=O)[O-])c2ccccc2c1 | 2.83
O=C1Nc2ccc([N+](=O)[O-])cc2C1=O | 0.47
O=[N+]([O-])c1ccc2c3c(cccc13)CC2 | 3.85
Cc1ccc2cccc([N+](=O)[O-])c2n1 | 1.99

Assay: method code SF-RC, from DOI: 10.1021/jm901332c, PMID: 19921956
Details: pH 7.4

Structure (SMILES) | logD
Cn1cnc2ncnc(Cl)c21 | 0.03
Cn1cnc2ncnc(F)c21 | -0.62
Cn1cnc2c(F)ncnc21 | 0.11
Cn1cnc2ncnc(Br)c21 | 0.2

Assay: method code SF-HPLC, from DOI: 10.1007/bf00269028, PMID: 6488439
Details: not given

Structure (SMILES) | logP
Nc1ccn(C2OC(CCl)C(O)C2O)c(=O)n1 (configuration not stated) | -1.05
Nc1ccn([C@@H]2O[C@@H]3CO[C@H]2[C@@H]3O)c(=O)n1 | -1.64
Cc1c[nH]c(=O)[nH]c1=O | -0.57
Nc1cc[nH]c(=O)n1 | -1.49

Assay: method code SF-HPLC, from DOI: 10.1002/jps.2600750520, PMID: 3735094
Details: pH 4.0

Structure (SMILES) | logD
CCCCOC(=O)n1cc(F)c(=O)[nH]c1=O | 0.89
COC(=O)n1cc(F)c(=O)[nH]c1=O | -0.68
CC(C)COC(=O)n1cc(F)c(=O)[nH]c1=O | 0.87
CCOC(=O)n1cc(F)c(=O)[nH]c1=O | -0.17

Assay: method code SF-AS, from DOI: 10.1002/1521-3838(200111)20:4<291::aid-qsar291>3.0.co;2-q
Details: not given

Structure (SMILES) | logP
S=c1[nH]nc(-c2ccc(Cl)cc2)o1 | 3.66
Cc1ccc(-c2n[nH]c(=S)o2)cc1 | 3.44
Oc1ccccc1-c1n[nH]c(=S)o1 | 2.42
S=c1[nH]nc(-c2ccccc2Cl)o1 | 3.36

Assay: method code SF-AS, from Ganga, L. X. J. S., & Zun-Yaob, L. H. W. (2009). Determination of lgKow and QSPR Study on Some Fluorobenzene Derivatives. Jiegou Huaxue, 28(10).
Details: not given

Structure (SMILES) | logP
Oc1ccc(F)cc1F | 1.9
Fc1cc(F)c(F)cc1F | 2.44
Fc1ccc(F)c(F)c1 | 2.34
Fc1ccccc1F | 2.1

Assay: method code SF-GLC, from Boikov, Yu.; Shibaev, V.; Gaidamaka, V.; V'yunov, K. (1989). Study of correlation between extraction characteristics of glycidyl ethers and theri structure. 62(1)177-179.
Details: not given

Structure (SMILES) | logP
COCC1CO1 (configuration not stated) | 0.03
CCCOCC1CO1 (configuration not stated) | 0.5
CC(C)OCC1CO1 (configuration not stated) | 0.8
CCCCOCC1CO1 (configuration not stated) | 0.55
